According to ChEMBL document CHEMBL1150937, “Aeruginosin 103-A, a thrombin inhibitor from the cyanobacterium Microcystis viridis” (J Nat Prod, 1998):
≈ marks a conversion by molar mass, not a printed value.

Key:
Prothrombin = Prothrombin (Homo sapiens, UniProt P00734); experiment: Inhibition of thrombin
Plasminogen = Plasminogen (Homo sapiens, UniProt P00747); experiment: Inhibition of plasmin
[1] = Inhibition of trypsin

Chain of Plasminogen (P00747 97-580 limits assumed): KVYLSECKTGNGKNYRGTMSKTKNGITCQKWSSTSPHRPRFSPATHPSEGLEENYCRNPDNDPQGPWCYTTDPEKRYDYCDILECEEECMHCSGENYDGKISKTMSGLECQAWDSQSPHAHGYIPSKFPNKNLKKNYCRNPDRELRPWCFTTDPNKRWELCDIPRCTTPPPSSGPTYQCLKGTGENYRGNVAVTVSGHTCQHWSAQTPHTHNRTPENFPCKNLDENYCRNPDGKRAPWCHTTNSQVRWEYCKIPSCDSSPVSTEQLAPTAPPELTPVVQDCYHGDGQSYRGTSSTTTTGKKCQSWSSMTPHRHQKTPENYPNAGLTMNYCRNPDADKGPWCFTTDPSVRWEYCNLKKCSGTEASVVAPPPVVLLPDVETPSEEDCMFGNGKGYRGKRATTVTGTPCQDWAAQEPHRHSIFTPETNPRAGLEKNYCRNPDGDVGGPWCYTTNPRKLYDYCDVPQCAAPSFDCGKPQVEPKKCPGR
Chain of Plasminogen (P00747 581-810 limits assumed): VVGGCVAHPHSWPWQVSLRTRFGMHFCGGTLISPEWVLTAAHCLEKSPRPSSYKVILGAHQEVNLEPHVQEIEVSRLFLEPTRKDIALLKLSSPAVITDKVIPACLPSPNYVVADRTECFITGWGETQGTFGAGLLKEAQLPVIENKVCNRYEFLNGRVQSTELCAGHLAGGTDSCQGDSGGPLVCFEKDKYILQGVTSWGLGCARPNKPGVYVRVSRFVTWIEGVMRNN

- IC50 (Prothrombin): 13.2 µM
- IC50 (Plasminogen): 99.9 µM
- IC50 [1]: 51 µg/mL (≈ 74.9 µM)
Structure (SMILES): CCO[C@@H]1[C@@H](NC(=O)C2CC3CCC(O)CC3N2C(=O)[C@@H](Cc2ccc(O)cc2)NC(=O)[C@H](O)Cc2ccc(O)cc2)CCCN1C(=N)N (stereo partly drawn)
